# Measured values reported in patent US20090137658A1, “BENZENESULFONIC ACID SALT COMPOUNDS” (Tanabe Seiyaku Co.,Ltd., priority 2003, published 2009).
# “Also recorded” adds a separate entry of the source.
# What was measured:
# Assay type in all cases: physicochemical
# [1] = Hygroscopicity / deliquescence of crystalline salts at elevated relative humidity
# Text: This is exemplified by the hygroscopicity of the crystalline hydrochloride (HCl) salt of trans-4-({2-[(2S)-2-cyanopyrrolidinyl]-2-oxoethyl}amino)-N,N-dimethylcyclohexanecarboxamide. […] That is, the benzenesulfonic acid salts of the present invention sorb much lower amounts of water when exposed to a broad range of humidities and can be prepared in a physically stable crystal form, thus enhancing their suitability as medicaments.
# [2] = Infrared (IR) studies of hydration/dehydration of besylate monohydrate
# Procedure: The partially dehydrated form of the monohydrate Form 1 of Formula I is stable for at least 24 hours at room temperature and partial hydration to the monohydrate of Formula I can be recovered at higher relative humidity (RH).
# Samples of trans-4-({2-[(2S)-2-cyanopyrrolidinyl]-2-oxoethyl}amino)-N,N-dimethylcyclohexane-carboxamide besylate monohydrate either as a pure solid or diluted in KBr powder were placed inside a FTIR spectrometer purged under dry N2 at room temperature (RT). […] Upon re-exposure of the partially dehydrated samples to the atmosphere for <1 min., the intensities of these IR bands are fully recovered. The FTIR spectrum of this experiment is in FIG. 4.
# [3] = Moisture sorption testing of besylate monohydrate salt (integrated gas flow microbalance)
# Procedure: Moisture sorption was measured with an integrated gas flow microbalance system. Approximately 20 mg of 4-({2-[(2S)-2-cyanopyrrolidinyl]-2-oxoethyl}amino)-N,N-dimethylcyclohexanecarboxamide besylate monohydrate salt was weighed into a sample pan of an integrated gas flow microbalance system (SGA100, VTI Corporation). The sample was dried at 60° C. under a dry nitrogen stream until the rate of weight loss was less than 0.015% in 5 minutes. After drying the sample was equilibrated at 25° C. and the relative humidity increased stepwise (adsorption) to 5, 15, 25, 35, 45, 55, 65, 75, 85 and 95% Each relative humidity step was held until the sample equilibrated at that condition. Equilibrium was defined as a weight change of less than 0.015% in 5 minutes. The relative humidity was then decreased step wise (desorption) to 90, 80, 70, 60, 50, 40, and 20% Each step was held until equilibrium was reached. The equilibrium condition was the same as in the sorption phase. The % w/w increase or decrease in moisture content of the sample is reported for each equilibrated RH condition.
# [4] = Moisture sorption testing of besylate anhydrate salt (integrated vacuum microbalance); settings: in the presence of water vapour, such as at elevated relative humidity
# Procedure: Moisture sorption was measured with an integrated vacuum microbalance system. Approximately 11 mg of 4-({2-[(2S)-2-cyanopyrrolidinyl]-2-oxoethyl}amino)-N,N-dimethylcyclohexanecarboxamide besylate anhydrate salt was weighed into a sample pan of an integrated vacuum microbalance system (MB300G, VTI Corporation). The sample was dried at 60° C. under vacuum until the rate of weight loss was less than 0.015% in 2 minutes. After drying the sample was equilibrated at 25° C. and the relative humidity increased stepwise (adsorption) to 15, 25, 35, 45, 55, 65, 75, 85 and 95% Each relative humidity step was held until the sample equilibrated at that condition. Equilibrium was defined as a weight change of less than 0.015% in 2 minutes. The relative humidity was then decreased step wise (desorption) to 90, 80, 70, 60, 50, 40, 30 and 20% Each step was held until equilibrium was reached. The equilibrium condition was the same as in the sorption phase. The % w/w increase or decrease in moisture content of the sample is reported for each equilibrated RH condition.
# [5] = purged under dry N2 at room temperature
structure (smiles),measurement,setting,value
"CN(C)C(=O)[C@H]1CC[C@H](NCC(=O)N2CCC[C@H]2C#N)CC1.Cl (relative stereo) [HCl salt, trans-4-({2-[(2S)-2-cyanopyrrolidinyl]-2-oxoethyl}-amino)-N,N-dimethylcyclohexanecarboxamide hydrochloride]",time to deliquesce,"[1]; 25° C., relative humidities greater than 75%",approximately 20 hours
same,time to deliquesce,"[1]; 40° C., relative humidities of greater than 75%",approximately 24 hours
"CN(C)C(=O)[C@H]1CC[C@H](NCC(=O)N2CCC[C@H]2C#N)CC1 [Form 1, trans-4-({2-[(2S)-2-cyanopyrrolidinyl]-2-oxoethyl}amino)-N,N-dimethylcyclohexanecarboxamide benzenesulfonate monohydrate]",re-exposure time to the atmosphere after which IR bands are fully recovered,[2]; partially dehydrated samples re-exposed to the atmosphere,< 1 min
same,time to reach dehydration equilibrium (IR bands of H2O),[2]; [5],~30 min
same,time within which IR bands assigned to H2O decreased very rapidly,[2]; [5],≤ 10 min
same,stability of the partially dehydrated form,[2]; room temperature,at least 24 hours
same,dehydration (loss of water),"[2]; room temperature, purged with or exposed to dried air or dry nitrogen (low relative humidity), benzenesulfonate monohydrate",loses water readily; also recorded: partial dehydration of the hydrate is facile
same,re-hydration of the dehydrated form,"[2]; upon exposure to atmospheric humidity / higher relative humidities, benzenesulfonate monohydrate",re-hydration occurs rapidly; also recorded: re-hydration to the monohydrate occurs very rapidly
same,water absorbed,[3]; relative humidity between 0% and 95% at 25° C.,less than 10 % w/w
same,additional water sorbed by the monohydrate,"[3]; up to 95% relative humidity, on top of monohydrate water content",1-2 % w/w
same,desorption of adsorbed water,[3]; when the relative humidity is decreased,readily desorbs
"CN(C)C(=O)C1CCC(NCC(=O)N2CCC[C@H]2C#N)CC1.O=S(=O)(O)c1ccccc1 (stereo partly drawn) [Form 2, trans-4-({2-[(2S)-2-cyanopyrrolidinyl]-2-oxoethyl}amino)-N,N-dimethylcyclohexanecarboxamide besylate anhydrate]",conversion of anhydrate form,[4],converts to the hydrate
